Where two headings read alike, the source gives them in different places.
Tests used:
[1] = system: greenhouse red spider mite (Tetranychus urticae); assay: Tetranychus urticae spray test, OP-resistant (TETRUR), bean leaf disks; type: in vivo; conditions: bean leaf disks, after 6 days; for pest or weed control at 500 g/ha: Tetranychus urticae, foliar, 144 h, read-out: efficacy in %
Procedure: Tetranychus urticae—Spray Test, OP-Resistant (TETRUR)
Solvent: 78.0 parts by weight of acetone
• 1.5 parts by weight of dimethylformamide Emulsifier: alkylaryl polyglycol ether
To produce a suitable preparation of active compound, 1 part by weight of active compound is dissolved using the stated parts by weight of solvent and made up with water containing an emulsifier concentration of 1000 ppm until the desired concentration is attained. To produce further test concentrations, the preparation is diluted with emulsifier-containing water.
disks of bean leaves (Phaseolus vulgaris) infested with all stages of the greenhouse red spider mite (Tetranychus urticae) are sprayed with an active compound preparation of the desired concentration.
After 6 days, the efficacy in % is determined. 100% means that all the spider mites have been killed; 0% means that none of the spider mites have been killed.

[2] = log P determination by HPLC on reversed-phase columns (C 18), analogously to OECD Guideline 117; type: physicochemical; conditions: for logP (HCOOH): LC-MS in the acidic range, pH 2.7, 0.1% aqueous formic acid / acetonitrile; for logP (HCOOH) / logP (neutral): HPLC reversed-phase C 18; for logP (neutral): LC-MS in the neutral range, pH 7.8, 0.001 molar aqueous ammonium hydrogencarbonate / acetonitrile; for chromatographic logP: reversed-phase C18 HPLC column
Summary of the method: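 Reversed-phase C18 HPLC per OECD 117 with LC-MS detection and a linear 10→95% acetonitrile gradient. Acidic log P run at pH 2.7 with 0.1% formic acid in both eluents. Neutral log P run at pH 7.8 with 0.001 M aqueous ammonium hydrogencarbonate.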

[3] = acidic range, pH 2.7, 0.1% aqueous formic acid and acetonitrile, read-out: log P[a] / log P(HCOOH)
[4] = neutral range, pH 7.8, 0.001 molar aqueous ammonium hydrogencarbonate and acetonitrile, read-out: log P[b] / log P(neutral)

| SMILES | efficacy in % ([1]; application rate 500 g/ha) | logP (HCOOH) [2] | logP (neutral) [2] | efficacy in % ([1]; application rate 100 g/ha) | pest or weed control at 500 g/ha ([1]; application rate 500 g/ha) | chromatographic logP [2, 3] | chromatographic logP [2, 4] |
| --- | --- | --- | --- | --- | --- | --- | --- |
| Cc1cc(F)c(N2C(=O)CN(Cc3ccccc3)C2=O)cc1[S+]([O-])CC(F)(F)F (centres unmarked) [Example 205] | 90% | 2.60 | 2.52 | – | – | – | – |
| Cc1cc(F)c(-n2c(=O)n(CC3CC3)c(=O)n2C)cc1[S+]([O-])CC(F)(F)F (centres unmarked) [Example 169] | – | 2.30 | 2.33 | 90% | – | – | – |
| CCn1c(=O)n(-c2cc(SCC(F)(F)F)c(C)cc2F)c(=O)n1CC [Example 118, 1,2-Diethyl-4-{2-fluoro-4-methyl-5-[(2,2,2-trifluoroethyl)sulfanyl]phenyl}-1,2,4-triazolidine-3,5-dione] | – | – | – | – | 100% | 3.03 | – |
| Cc1cc(F)c(-n2[nH]c(=O)n(C)c2=O)cc1SCC(F)(F)F [Example 55] | 90% | 2.09 | 0.60 | – | – | – | – |
| Cc1ccc(-n2c(=O)n(C3CC3)c(=O)n2Cc2ccccc2)cc1SCC(F)(F)F [Example 90] | 100% | 3.81 | 3.71 | – | – | – | – |
| Cn1c(=O)n(C2CC2)c(=O)n1-c1ccc(Cl)c(SCC(F)(F)F)c1 [Example 40] | 100% | 3.04 | 2.98 | – | – | – | – |
| CCn1c(=O)n(C(C)(C)C)c(=O)n1-c1cc(SCC(F)(F)F)c(C)cc1F [Example 99] | 90% | 4.21 | 4.16 | – | – | – | – |
| C=CCn1c(=O)n(C2CC2)c(=O)n1-c1cc(SCC(F)(F)F)c(C)cc1F [Example 130] | 100% | 3.31 | 3.28 | – | – | – | – |
| CCn1c(=O)n(-c2cc(SCC(F)(F)F)c(C)cc2F)c(=O)n1C [Example 122, 1-Ethyl-4-{2-fluoro-4-methyl-5-[(2,2,2-trifluoroethyl)sulfanyl]phenyl}-2-methyl-1,2,4-triazolidine-3,5-dione] | – | – | – | – | 90% | 2.71 | – |
| Cc1ccc(-n2c(=O)n(C3CC3)c(=O)n2C(C)C)cc1SCC(F)(F)F [Example 63] | 90% | 3.65 | 3.57 | – | – | – | – |
| Cc1cc(F)c(N2C(=O)N(C)C(C)(C)C2=O)cc1[S+]([O-])CC(F)(F)F (centres unmarked) [Example 17, 3-{2-Fluoro-4-methyl-5-[(2,2,2-trifluoroethyl)sulfinyl]phenyl}-1,5,5-trimethylimidazolidine-2,4-dione] | – | – | – | – | 100% | 2.04 | 2.01 |
| Cc1cc(F)c(N2C(=O)CN(Cc3ccccc3)C2=O)cc1SCC(F)(F)F [Example 204] | 100% | 3.49 | 3.48 | – | – | – | – |
| Cc1cc(F)c(-n2c(=O)n(CC(F)F)c(=O)n2CC(F)(F)F)cc1SCC(F)(F)F [Example 156] | 90% | 3.44 | 3.51 | – | – | – | – |
| Cc1cc(F)c(-n2c(=O)n(C)n(C)c2=O)cc1SCC(F)(F)F [Example 116, 4-{2-Fluoro-4-methyl-5-[(2,2,2-trifluoroethyl)sulfanyl]phenyl}-1,2-dimethyl-1,2,4-triazolidine-3,5-dione] | – | – | – | – | 100% | 2.4 | 2.39 |
| CCn1c(=O)n(C)n(-c2ccc(C)c(SCC(F)(F)F)c2)c1=O [Example 131] | 90% | 3.00 | 2.97 | – | – | – | – |
| CCn1c(=O)[nH]n(-c2cc(SCC(F)(F)F)c(C)cc2F)c1=O [Example 85] | 90% | 2.43 | 0.86 | – | – | – | – |
| COCCCn1c(=O)n(C)n(-c2cc(SCC(F)(F)F)c(C)cc2F)c1=O [Example 159] | 100% | 2.96 | 2.95 | – | – | – | – |
| Cc1cc(F)c(N2C(=O)C3(CCC3)C(=O)N2C)cc1[S+]([O-])CC(F)(F)F (centres unmarked) [Example 180] | 100% | 1.99 | 1.97 | – | – | – | – |
| Cc1cc(F)c(-n2c(=O)n(C3CC3)c(=O)n2C(C)C)cc1[S+]([O-])CC(F)(F)F (centres unmarked) [Example 64] | 90% | 2.51 | 2.45 | – | – | – | – |
| Cc1cc(F)c(N2CC(C)OC2=O)cc1[S+]([O-])CC(F)(F)F (centres unmarked) [Example 109, 3-[2-Fluoro-4-methyl-5-(2,2,2-trifluoroethylsulfinyl)phenyl]-5-methyloxazolidin-2-one] | – | – | – | – | 100% | 1.93 | 1.89 |
| C=CCn1c(=O)n(-c2cc([S+]([O-])CC(F)(F)F)c(C)cc2F)c(=O)n1CC=C (racemic) [Example 120] | 90% | 2.46 | – | – | – | – | – |
| Cc1cc(F)c(-n2c(=O)n(C(C)(C)C)c(=O)n2C)cc1SCC(F)(F)F [Example 94] | – | 3.85 | 3.82 | 90% | – | – | – |

| SMILES | efficacy in % ([1]; application rate 500 g/ha) | logP (HCOOH) [2] | logP (neutral) [2] | efficacy in % ([1]; application rate 100 g/ha) | pest or weed control at 500 g/ha ([1]; application rate 500 g/ha) | chromatographic logP [2, 3] | chromatographic logP [2, 4] |
| --- | --- | --- | --- | --- | --- | --- | --- |
| CCn1c(=O)n(C(C)(C)C)c(=O)n1-c1cc([S+]([O-])CC(F)(F)F)c(C)cc1F (centres unmarked) [Example 137] | 90% | 3.02 | 2.96 | – | – | – | – |
| Cc1ccc(-n2c(=O)n(C3CC3)c(=O)n2CC(C)C)cc1[S+]([O-])CC(F)(F)F (centres unmarked) [Example 50] | 90% | 3.58 | 3.47 | – | – | – | – |
| Cc1cc(F)c(N2C(=O)C(=O)N(CC(C)C)C2=S)cc1SCC(F)(F)F [Example 191] | 100% | 4.62 | 4.54 | – | – | – | – |
| COCCCn1c(=O)n(C)n(-c2cc([S+]([O-])CC(F)(F)F)c(C)cc2F)c1=O (centres unmarked) [Example 170] | 90% | 1.97 | 1.98 | – | – | – | – |
| Cc1cc(F)c(N2CCNC2=O)cc1SCC(F)(F)F [Example 9, 1-{2-Fluoro-4-methyl-5-[(2,2,2-trifluoroethyl)sulfanyl]phenyl}imidazolidin-2-one] | – | – | – | – | 90% | 2.36 | 2.31 |
| Cn1c(=O)n(C2CC2)c(=O)n1-c1ccc(C#N)c([S+]([O-])CC(F)(F)F)c1 (centres unmarked) [Example 43] | 90% | 1.93 | 1.90 | – | – | – | – |
| CCn1c(=O)n(C)c(=O)n1-c1cc([S+]([O-])CC(F)(F)F)c(C)cc1F (centres unmarked) [Example 98] | 90% | 1.93 | 1.91 | – | – | – | – |
| Cc1cc(F)c(N2C(=O)N(C)C(=O)C2C)cc1SCC(F)(F)F (centres unmarked) [Example 212] | 90% | 2.92 | – | – | – | – | – |
| Cc1cc(F)c(N2C(=O)N(C3CC3)C(=O)C2C)cc1[S+]([O-])CC(F)(F)F (centres unmarked) [Example 215] | 100% | 2.15 | – | – | – | – | – |
| Cc1ccc(-n2c(=O)n(C)c(=O)n2C(C)C)cc1SCC(F)(F)F [Example 61] | 90% | 3.33 | 3.27 | – | – | – | – |
| CCCCN1CC(=O)N(c2cc([S+]([O-])CC(F)(F)F)c(C)cc2F)C1=O (centres unmarked) [Example 203] | 90% | 2.47 | 2.43 | – | – | – | – |
| CCn1c(=O)n(C)n(-c2ccc(C)c([S+]([O-])CC(F)(F)F)c2)c1=O (centres unmarked) [Example 89] | 100% | 1.96 | 1.91 | – | – | – | – |
| CCCn1c(=O)n(C)n(-c2cc(SCC(F)(F)F)c(C)cc2F)c1=O [Example 160] | – | 3.28 | 3.22 | 100% | – | – | – |
| Cc1cc(F)c(N2CCOC2=O)cc1[S+]([O-])CC(F)(F)F (centres unmarked) [Example 105, 3-[2-Fluoro-4-methyl-5-(2,2,2-trifluoroethylsulfinyl)phenyl]oxazolidin-2-one] | – | – | – | – | 90% | 1.64 | – |
| Cc1cc(F)c(N2C(=O)C(=O)N(CC(C)(C)C)C2=S)cc1SCC(F)(F)F [Example 192] | 90% | 4.89 | 4.80 | – | – | – | – |
| C=CCn1c(=O)n(C)c(=O)n1-c1ccc(C)c(SCC(F)(F)F)c1 [Example 58] | 100% | 3.03 | 2.88 | – | – | – | – |
| C#CCn1c(=O)n(-c2cc(SCC(F)(F)F)c(C)cc2F)c(=O)n1C [Example 121] | 100% | 2.81 | – | – | – | – | – |
| C=CCn1c(=O)n(C)c(=O)n1-c1ccc(C)c([S+]([O-])CC(F)(F)F)c1 (centres unmarked) [Example 59] | 100% | 2.03 | 2.00 | – | – | – | – |
| Cc1ccc(-n2c(=O)n(C(C)C)c(=O)n2C)cc1SCC(F)(F)F [Example 132] | 100% | 3.42 | 3.38 | – | – | – | – |
| CCn1c(=O)n(CC)n(-c2ccc(C)c([S+]([O-])CC(F)(F)F)c2)c1=O (centres unmarked) [Example 138] | 90% | 2.20 | 2.19 | – | – | – | – |
| Cn1c(=O)n(C2CC2)c(=O)n1-c1ccc(Br)c(SCC(F)(F)F)c1 [Example 46] | 100% | 3.11 | 3.05 | – | – | – | – |

Source: patent publication US9981928B2, “Aryl sulfide derivatives and aryl sulfoxide derivatives as acaricides and insecticides” (BAYER CROPSCIENCE AKTIENGESELLSCHAFT, priority 2013, dated 2018)
